This assay deals with T1, human CGRP receptor (Homo sapiens, UniProt O60894+Q16602).
T1 construct: SK-N-MC cells that endogenously express the human CGRP receptor; endogenous in cells; host or cells: SK-N-MC cells (membrane homogenates)
Put plainly: [125I]-CGRP radioligand binding assay, SK-N-MC cell homogenates. Particulars: 40 pM [125I]-CGRP, room temperature. As for the experimental part: Tissue culture. SK-N-MC cells were grown at 37° C. in 5% CO2 as a monolayer in medium consisting of MEM with Earle's salts and L-glutamine (Gibco) supplemented with 10% fetal bovine serum (Gibco). Radioligand binding assays. Cells were rinsed twice with phosphate-buffered saline (155 mM NaCl, 3.3 mM Na2HPO4, 1.1 mM KH2PO4, pH 7.4), and incubated for 5-10 min. at 4° C. in hypotonic lysis buffer consisting of 10 mM Tris (pH 7.4) and 5 mM EDTA. Cells were transferred from plates to polypropylene tubes (16×100 mm), homogenized and centrifuged at 32,000×g for 30 min. Pellets were resuspended in buffer consisting of 50 mM Tris (pH 7.4) and 1 mM EDTA, homogenized, and centrifuged again at 32,000×g for 30 min. Pellets were resuspended in 100 mM Tris-Cl pH 7.5, 10 mM MgCl2, 0.1% mammalian protease inhibitor cocktail (Sigma) and stored at −80° C. until needed. On the day of an experiment, homogenates were thawed and homogenized again. Binding of [^125I]-CGRP (NEN) was carried out in buffer containing 50 mM Tris-Cl pH 7.5, 5 mM MgCl2, 0.5% BSA. Homogenates (3.5 μg protein/well) were incubated with competitor compounds (solubilized in 100% DMSO at 100× their final assay concentrations) for one hour at room temperature. Then [^125I]-CGRP was added (40 pM final concentration) and the reaction incubated for one additional hour at room temperature. […]

Results on 1 molecule are retold here after patent publication US20050222158A1, “Method of treating migraine headaches using calcitonin gene related peptide mimetics” (priority 2004, published 2005).

T1 sequence (Q16602 23-461): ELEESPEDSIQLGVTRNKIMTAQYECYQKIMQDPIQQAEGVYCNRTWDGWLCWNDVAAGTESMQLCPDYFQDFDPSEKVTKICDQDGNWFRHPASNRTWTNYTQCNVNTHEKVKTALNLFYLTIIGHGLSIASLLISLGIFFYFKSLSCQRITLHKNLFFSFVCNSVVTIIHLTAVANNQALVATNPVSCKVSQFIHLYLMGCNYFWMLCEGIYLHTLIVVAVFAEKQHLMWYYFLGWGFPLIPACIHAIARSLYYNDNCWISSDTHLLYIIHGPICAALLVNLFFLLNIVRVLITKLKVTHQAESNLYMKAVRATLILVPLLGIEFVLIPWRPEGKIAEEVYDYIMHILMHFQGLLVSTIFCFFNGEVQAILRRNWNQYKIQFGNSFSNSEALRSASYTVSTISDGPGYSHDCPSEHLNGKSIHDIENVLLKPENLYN
T1 sequence (O60894 27-148): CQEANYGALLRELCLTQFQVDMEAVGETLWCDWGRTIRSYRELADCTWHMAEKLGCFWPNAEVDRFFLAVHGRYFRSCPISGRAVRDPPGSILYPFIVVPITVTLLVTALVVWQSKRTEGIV

The IC50 is the midpoint of a concentration-inhibition curve. A high value points to weaker potency. As for `CC(=O)c1ccc(NC(=O)N2CCC(=O)N3[C@@H]2CN(CCc2cccc(F)c2)C(=O)[C@@H]3CC(=O)OC2[C@H]3C[C@@H]4C[C@@H](C[C@H]2C4)C3)cc1` (stereo partly drawn) [Compound 29, {1-(4-Acetyl-phenylcarbamoyl)-(6S,9aS)-8-[2-(3-fluoro-phenyl)-ethyl]-4,7-dioxo-octahydro-pyrazino[1,2a]pyrimidin-6-yl}-acetic acid adamantan-2-yl ester], the IC50 was 5160 nM.
